Assay [1] concerns Rattus norvegicus. The assay is described as follows: Inhibition of lethal factor-induced toxicity in Fischer 344 rat assessed as enhancement of survival rate at 5 mg/kg, iv followed by administration of 10 ug lethal toxin after 20 to 30 mins of compound dosing. The class given is functional, organism-based. Set-up: dose 5 mg/kg.
The subject of assay [2] is Rattus norvegicus. Description: Inhibition of lethal factor-induced toxicity in Fischer 344 rat assessed as enhancement of survival rate at 2.5 mg/kg, iv followed by administration of 10 ug lethal toxin after 20 to 30 mins of compound dosing. The class given is functional, organism-based. The arrangement: dose 2.5 mg/kg.

Molecules are shown by their SMILES. Active and inactive are the calls of the source. The rule behind the calls is not given here.

On to `Cc1cc(O[C@H](CCCCCNCCc2ccc(F)cc2)C(=O)NO)cc(C)c1F`, for which the Survival result in the assay with Rattus norvegicus [1] is “inactive”.
As for `Cc1cc(CNCCCC[C@@H](Nc2cc(C)c(F)c(C)c2)C(=O)NO)ccc1F`, the Survival result in the assay on Rattus norvegicus [2] was “inactive”. In addition, in the assay with Rattus norvegicus [1], the Survival entry was “Active”.
As to `Cc1cc(O[C@H](CCCCNCc2ccc(F)cc2)C(=O)NO)cc(C)c1F`, the Survival result in the assay with Rattus norvegicus [1] is “inactive”.
As for `Cc1cc(N[C@H](CCCCNCc2ccc(F)cc2)C(=O)NO)cc(C)c1F`, the Survival result in the assay on Rattus norvegicus [2] and in the assay on Rattus norvegicus [1] was “Active” throughout.
`Cc1cc(CNCCCC[C@@H](Nc2ccc(F)c(C)c2)C(=O)NO)ccc1F`: in the assay on Rattus norvegicus [1], the Survival entry was “inactive”.
Take `O=C(NO)[C@@H](CCCCNCc1ccc(F)cc1)Nc1ccc(F)c(Cl)c1`: in the assay on Rattus norvegicus [1], the Survival result is “inactive”.
On the same count and under the same terms, next, `CO[C@H](C[C@H](CCCCCNCCc1ccc(F)cc1)C(=O)NO)c1ccc(F)cc1`: “inactive”; `Cc1cc(CNCCCC[C@@H](Oc2ccc(F)c(C)c2)C(=O)NO)ccc1F`: “inactive”; `Cc1cc(O[C@H](CCCCCNCc2ccc(F)cc2)C(=O)NO)cc(C)c1F`: “inactive”.
As for `CO[C@H](C[C@H](CCCCCNCc1ccc(F)cc1)C(=O)NO)c1ccc(F)cc1`, the Survival result in the assay on Rattus norvegicus [1] was “inactive”.
For `CO[C@H](C[C@H](CCCCNCc1ccc(F)cc1)C(=O)NO)c1ccc(F)cc1`, the Survival entry in the assay with Rattus norvegicus [2] is “inactive”. The Survival entry in the assay on Rattus norvegicus [1] is “Active”.

The values above are taken from ChEMBL document CHEMBL1759992.
